For series [1] the following is noted: Kocherginsky et al., 1995; cited from earlier work.
In series [2] the test system is SAPK. Kind of series: SAPK tyrosine phosphorylation (anti-SAPK IP, anti-PY immunoblot). It counts as cell-based, human. The conditions noted are these: 10 mM, time course, vs tempol or untreated controls. The protocol: FIGS. 5A, 5B, 5C. Tempo stimulates tyrosine phosphorylation and activity of SAPK. […] 5A. WCLs (1 mg) were immunoprecipitated with agarose-conjugated anti-SAPK antibody, followed by immunoblotting with anti-PY MAb. 5B. In other independent experiments, anti-SAPK immunoprecipitates were first probed with anti-PY MAb (top), and the blot was then reprobed with anti-SAPK antibody (bottom). 5C. […] WCLs were immunoprecipitated with anti-JNK1 antibody, and the JNK1 activity in immunoprecipitates was measured using GST-cJun (˜41 kDa) as a substrate. UT, untreated cells grown overnight in serum-free medium; CONT/Control, cells grown in serum-free medium overnight, and treated with 1% ethanol for 2 h.
Immunoprecipitation and Immunoblotting—Whole cell lysate (1 mg) was immunoprecipitated with the appropriate agarose-conjugated antibody (1 ug/ml of lysis buffer) overnight at 4° C. with constant agitation. For SAPK immunoprecipitation, WCL (1 mg) was immunoprecipitated with anti-SAPK antibody (5 ug/ml) overnight followed by addition of protein A-Agarose (50 ul of 250 ul/ml stock) and incubation for 2 h at 4° C. Immune-complex beads were collected by microcentrifugation at 15,000×g for 5 min followed by three washes with lysis buffer. […] The bands of interest were quantified by ImageQuant software version 3.3 (Molecular Dynamics Personal Densitometer, Sunnyvale, Calif.). […]

Series [3] concerns bovine aortic endothelial cells. Kind of series: Apoptotic cell death by bisbenzamide trihydrochloride/Hoechst-33258 staining. It counts as cell-based. To be noted: 5 mM.
A short description of series [4]: Tolerated dose in mice.
Series [5] in a line: Apoptosis assay (annexin V-FITC/propidium iodide flow cytometry), serum-free. The conditions noted are these: human. The protocol:
(§1) FIGS. (7A1–7A3), (7B1–7B2), (7C1–7C3), (7D1–7D2), (7E1–7E3), (7F1–7F2). […] Cells were grown in serum-free medium overnight in T-25 flasks and treated with tempol (10 mM) or tempo (10 mM) for various times, trypsinized, and then resuspended in 200 ul 1× binding buffer as described in experimental procedures. The cell suspension was double-stained with annexin V-FITC and propidium iodide and analyzed by flow cytometry. Background signal was determined by comparison with double-stained, single-stained, or unstained control cells. (7A1–7A3), (7C1–7C3), and (7E1–7E3) are cytograms showing a relative distribution of viable (V), apoptotic (A), and necrotic (N) cells at 2 h following tempol or tempo treatment of MDA-MB 231 cells (A), PCI-04A cells (C), and PC-3 cells (E). (7B1–7B3), (7D1–7D2), and (7F1–7F2) are time course analyses of MDA-MB 231 cells (B), PCT-04A cells (D), and PC-3 cells (F). 100,000 cells were analyzed at each time point in triplicate (B) or quadruplicate (D and F). Solid bars, 1% ethanol, striped bars, 10 mM tempol, empty bars, 10 mM tempo. […] Data shown are representative from three to four independent experiments. (7B1–7B2), Time course analysis of MDA-MB 231 cells undergoing apoptosis (annexin V-FITC staining) (7B1), or necrosis (propidium iodide staining) (7B2). Values shown are mean±s.d. of triplicate determinations per time point in each treatment category, and representative of three to four independent experiments. […] (7D1–7D2), Time course analysis of PCI-04A cells undergoing apoptosis (annexin V-FITC staining) (7D1), or necrosis (propidium iodide staining) (7D2). Values shown are mean±s.d. of quadruplicate determinations per time point in each treatment category. […] (7F1–7F2), Time course analysis of PC-3 cells undergoing apoptosis (annexin V-FITC staining) (7F1), or necrosis (propidium iodide staining) (7F2). Values shown are mean±s.d. of quadruplicate determinations per time point in each treatment category. Control/C, cells treated with 1% ethanol for 2 h.
Apoptosis Assay—ApoAlert Annexin V apoptosis detection system (Clontech Lab Inc., Palo Alto, Calif.) was used to measure the relative distribution of apoptotic and necrotic cells. Briefly, cells were seeded at a density of 1×10^6 cells per 25 cm^2 tissue culture flask in medium containing 10% FBS overnight, followed by washing twice in serum-free medium. Cells were maintained overnight in serum-free medium and exposed to tempol (10 mM) or tempo (10 mM) for various times. […] The intensity of the dye uptake by cells was detected using FACStar plus Flow Cytometer (Becton Dickerson, Lincoln Park, N.J.), and data were analyzed using Reproman True Facts software (Seattle, Wash.). […]
(In general: Flow cytometry measures light scatter and fluorescence of single cells or particles in a stream.)

The conditions of series [6]: previous in vitro studies, cited from earlier work.
Series [7] is described as follows: Apoptosis assay (annexin V-FITC/propidium iodide flow cytometry). The conditions noted are these: human. The protocol:
as §1
Apoptosis Assay—ApoAlert Annexin V apoptosis detection system (Clontech Lab Inc., Palo Alto, Calif.) was used to measure the relative distribution of apoptotic and necrotic cells. Briefly, cells were seeded at a density of 1×10^6 cells per 25 cm^2 tissue culture flask in medium containing 10% FBS overnight, followed by washing twice in serum-free medium. Cells were maintained overnight in serum-free medium and exposed to tempol (10 mM) or tempo (10 mM) for various times. This was followed by rinsing twice with serum-free medium prior to trypsinization, dilution in two volumes of serum-free medium, and centrifugation at 10,000× g. The cell pellet was washed once with PBS and resuspended in 200 ul of 1× binding buffer. The cell suspension was double-labeled with fluorescein isothiocyanate (FITC)-labeled annexin V (10 ul) and propidium iodide (PI) (10 ul) according to the manufacturer's instructions. Unlabeled cells or untreated cells labeled with either FITC-annexin V or PI, or double-labeled served as internal controls for the background signal. The intensity of the dye uptake by cells was detected using FACStar plus Flow Cytometer (Becton Dickerson, Lincoln Park, N.J.), and data were analyzed using Reproman True Facts software (Seattle, Wash.). Viable cells were FITC−/PI−, apoptotic cells were FITC+/PI−, and necrotic cells were FITC+/PI+.

Each structure is given as a SMILES string.

`CC1(C)CCCC(C)(C)N1[O]` [tempo, 2,2,6,6-tetramethylpiperidine-N-oxyl]: the “lipophilicity relative to tempol” value in series [1] is “approximately 200 times”. In addition, in series [2], the “level of phosphorylated SAPK (SAPKP)” value is “significant increase”. Further, the values for the apoptotic cell death in series [3] (4 h) and in series [3] (8 h) were 3.97±0.33% and 38.85±1.69%, respectively. Also, in series [4], the intratumoral tolerance entry was “over 200 mg/kg”.

Consider `CC1(C)CC(O)CC(C)(C)N1[O]` [tempol, 4-hydroxy-tempo, reference compound], for which the results for the viability at 2 h, 10 mM in series [5] and in series [7] were 95.8% and 92.3%, respectively. The protection factor in series [6] (100 mM, radioprotection) is recorded as 2.2. Moreover, the “concentration required to provide radioprotection” value in series [6] was 5 to 10 mM.
